In the supplement of paper PMC10307832:

Legend:
Experiment in all cases: relative viability (nuclei count vs DMSO), 5 days (fraction); higher = more cells survive
BMX-IN-1 + Pictilisib = compound: C=CC(=O)Nc1cc(-n2c(=O)ccc3cnc4ccc(-c5ccc(NS(C)(=O)=O)cc5)cc4c32)ccc1C [BMX-IN-1] + CS(=O)(=O)N1CCN(Cc2cc3nc(-c4cccc5[nH]ncc45)nc(N4CCOCC4)c3s2)CC1 [Pictilisib] (partner 1 µM)
How it was run: (§1)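 For relative viability, nuclei counts in treated wells were divided by those in vehicle wells. Lung cancer cell lines had been pin-tool dosed in 1536-well plates the day after seeding and cultured for 5 days, then fixed and stained in one step (final 0.05% Triton X-100, 1% formaldehyde, 1 ug/ml Hoechst) and imaged at 4×. Doses were one drug alone or a fixed anchor-drug dose plus five library-drug doses (not always all listed) in √10 steps, and values are duplicate-plate medians.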

Ibrutinib + Tozasertib = compound: C=CC(=O)N1CCC[C@@H](n2nc(-c3ccc(Oc4ccccc4)cc3)c3c(N)ncnc32)C1 [Ibrutinib] + Cc1cc(Nc2cc(N3CCN(C)CC3)nc(Sc3ccc(NC(=O)C4CC4)cc3)n2)n[nH]1 [Tozasertib] (partner 0.1 µM)
How it was run: as §1

Ibrutinib + Vorinostat = compound: C=CC(=O)N1CCC[C@@H](n2nc(-c3ccc(Oc4ccccc4)cc3)c3c(N)ncnc32)C1 [Ibrutinib] + O=C(CCCCCCC(=O)Nc1ccccc1)NO [Vorinostat] (partner 1 µM)
How it was run: as §1

PAC-1 + Pictilisib = compound: C=CCc1cccc(/C=N/NC(=O)CN2CCN(Cc3ccccc3)CC2)c1O [PAC-1] + CS(=O)(=O)N1CCN(Cc2cc3nc(-c4cccc5[nH]ncc45)nc(N4CCOCC4)c3s2)CC1 [Pictilisib] (partner 1 µM)
How it was run: as §1

## SK-MES-1
BMX-IN-1 + Pictilisib; first compound 0.02 µM
  relative viability: 0.345
BMX-IN-1 + Pictilisib; first compound 0.2 µM
  relative viability: 0.383
BMX-IN-1 + Pictilisib; first compound 0.6325 µM
  relative viability: 0.414
BMX-IN-1 + Pictilisib; first compound 2 µM
  relative viability: 0.344
Ibrutinib + Tozasertib; first compound 0.005 µM
  relative viability: 0.997
Ibrutinib + Tozasertib; first compound 0.01581 µM
  relative viability: 0.872
Ibrutinib + Tozasertib; first compound 0.05 µM
  relative viability: 0.965
Ibrutinib + Tozasertib; first compound 0.1581 µM
  relative viability: 1.03
Ibrutinib + Tozasertib; first compound 0.5 µM
  relative viability: 0.669
Ibrutinib + Vorinostat; first compound 0.005 µM
  relative viability: 1.16
Ibrutinib + Vorinostat; first compound 0.01581 µM
  relative viability: 1.05
Ibrutinib + Vorinostat; first compound 0.05 µM
  relative viability: 1.07
Ibrutinib + Vorinostat; first compound 0.1581 µM
  relative viability: 1.26
Ibrutinib + Vorinostat; first compound 0.5 µM
  relative viability: 0.747
PAC-1 + Pictilisib; first compound 0.02 µM
  relative viability: 0.336
PAC-1 + Pictilisib; first compound 0.06325 µM
  relative viability: 0.297
PAC-1 + Pictilisib; first compound 0.2 µM
  relative viability: 0.336
PAC-1 + Pictilisib; first compound 2 µM
  relative viability: 0.322
